From patent US20240109865A1, “INDAZOLE COMPOUNDS AS KINASE INHIBITORS” (TYRA BIOSCIENCES, INC., priority 2020, published 2024)

How the values were obtained:
Assay in all cases: Kinase assay, binding constants (Kd), kinase-tagged T7 phage, qPCR
[1] = biological target: FGFR4 (Homo sapiens (Human), UniProt P22455)
Description: (§1) Kinase-tagged T7 phage strains were prepared in an E. coli host derived from the BL21 strain. E. coli were grown to log-phase and infected with T7 phage and incubated with shaking at 32° C. until lysis. The lysates were centrifuged and filtered to remove cell debris. Streptavidin-coated magnetic beads were treated with biotinylated small molecule ligands for 30 minutes at room temperature to generate affinity resins for kinase assays. The liganded beads were blocked with excess biotin and washed with blocking buffer SeaBlock (Pierce), […], 1 mM DTT to remove unbound ligand and to reduce non-specific binding.
(§2) Test compounds were prepared as 111λ stocks in 10000 DMS0. Kds were determined using an 11-point 3-fold compound dilution series with three DMSO control points. […] The compounds were then diluted directly into the assays such that the final concentration of DMSO was 0.9%. All reactions performed in polypropylene 384-well plate. Each was a final volume of 0.02 ml. […] The beads were then re-suspended in elution buffer (1×PBS, 0.05% Tween […] non-biotinylated affinity ligand) and incubated at room temperature with shaking for 30 minutes. The kinase concentration in the eluates was measured by qPCR.
(§3) Binding constants were calculated with a standard dose-response curve using the Hill equation: […]
(§4) The Hill Slope was set to −1. Curves were fitted using a non-linear least square fit with the Levenberg-Marquardt algorithm.

[2] = biological target: FGFR1 (Homo sapiens (Human), UniProt P11362)
Description: as §1, §2, §3, §4

[3] = biological target: FGFR3 (Homo sapiens (Human), UniProt P22607)
Description: as §1, §2, §3, §4

[4] = biological target: FGFR3 (V555M) (Homo sapiens (Human), UniProt P22607, V555M); details: V555M mutant
Description: as §1, §2, §3, §4

[5] = biological target: FGFR2 (Homo sapiens (Human), UniProt P21802)
Description: as §1, §2, §3, §4

FGFR4, sequence (P22455 22-802): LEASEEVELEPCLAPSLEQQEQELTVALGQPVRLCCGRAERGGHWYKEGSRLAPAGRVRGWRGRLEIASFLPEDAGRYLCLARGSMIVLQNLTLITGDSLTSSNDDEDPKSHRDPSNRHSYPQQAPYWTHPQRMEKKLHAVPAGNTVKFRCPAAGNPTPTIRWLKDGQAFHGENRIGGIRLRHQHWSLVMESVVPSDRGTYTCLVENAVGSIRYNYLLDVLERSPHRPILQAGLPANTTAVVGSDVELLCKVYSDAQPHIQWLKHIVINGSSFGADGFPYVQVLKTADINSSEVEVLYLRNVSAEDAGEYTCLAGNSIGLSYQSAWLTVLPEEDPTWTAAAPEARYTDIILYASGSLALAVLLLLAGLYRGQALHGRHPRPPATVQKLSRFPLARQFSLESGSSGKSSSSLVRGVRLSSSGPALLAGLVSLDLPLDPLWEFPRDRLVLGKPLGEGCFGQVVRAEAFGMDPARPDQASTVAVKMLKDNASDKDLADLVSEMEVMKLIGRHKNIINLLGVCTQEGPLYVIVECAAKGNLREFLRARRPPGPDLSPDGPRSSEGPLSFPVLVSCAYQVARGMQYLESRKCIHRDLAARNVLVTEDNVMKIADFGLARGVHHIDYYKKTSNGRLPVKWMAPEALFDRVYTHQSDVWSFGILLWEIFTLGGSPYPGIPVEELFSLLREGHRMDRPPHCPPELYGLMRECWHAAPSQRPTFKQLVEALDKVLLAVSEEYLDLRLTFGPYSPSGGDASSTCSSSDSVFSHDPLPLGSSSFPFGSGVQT
FGFR3, sequence (P22607 23-806): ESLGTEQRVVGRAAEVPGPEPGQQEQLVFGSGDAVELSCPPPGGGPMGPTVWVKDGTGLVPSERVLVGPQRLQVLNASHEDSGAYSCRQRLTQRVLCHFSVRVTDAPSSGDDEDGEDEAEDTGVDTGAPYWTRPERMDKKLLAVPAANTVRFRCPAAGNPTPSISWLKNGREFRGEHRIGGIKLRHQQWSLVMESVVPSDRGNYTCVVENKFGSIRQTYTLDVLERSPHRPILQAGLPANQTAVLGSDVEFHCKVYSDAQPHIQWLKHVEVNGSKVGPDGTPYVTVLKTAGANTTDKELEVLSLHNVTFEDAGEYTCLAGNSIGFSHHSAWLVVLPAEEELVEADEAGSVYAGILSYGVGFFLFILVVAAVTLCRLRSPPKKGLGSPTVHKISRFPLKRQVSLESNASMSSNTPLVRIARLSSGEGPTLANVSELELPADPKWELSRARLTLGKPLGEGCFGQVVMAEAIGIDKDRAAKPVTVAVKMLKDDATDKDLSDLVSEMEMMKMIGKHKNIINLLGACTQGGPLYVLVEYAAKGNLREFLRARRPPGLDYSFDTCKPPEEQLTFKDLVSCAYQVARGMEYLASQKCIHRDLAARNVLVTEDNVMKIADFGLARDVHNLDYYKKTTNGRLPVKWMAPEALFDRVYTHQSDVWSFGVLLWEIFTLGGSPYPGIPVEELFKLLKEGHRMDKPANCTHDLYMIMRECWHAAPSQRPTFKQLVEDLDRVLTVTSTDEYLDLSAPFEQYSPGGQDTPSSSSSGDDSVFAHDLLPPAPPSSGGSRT
FGFR2, sequence (P21802 22-821): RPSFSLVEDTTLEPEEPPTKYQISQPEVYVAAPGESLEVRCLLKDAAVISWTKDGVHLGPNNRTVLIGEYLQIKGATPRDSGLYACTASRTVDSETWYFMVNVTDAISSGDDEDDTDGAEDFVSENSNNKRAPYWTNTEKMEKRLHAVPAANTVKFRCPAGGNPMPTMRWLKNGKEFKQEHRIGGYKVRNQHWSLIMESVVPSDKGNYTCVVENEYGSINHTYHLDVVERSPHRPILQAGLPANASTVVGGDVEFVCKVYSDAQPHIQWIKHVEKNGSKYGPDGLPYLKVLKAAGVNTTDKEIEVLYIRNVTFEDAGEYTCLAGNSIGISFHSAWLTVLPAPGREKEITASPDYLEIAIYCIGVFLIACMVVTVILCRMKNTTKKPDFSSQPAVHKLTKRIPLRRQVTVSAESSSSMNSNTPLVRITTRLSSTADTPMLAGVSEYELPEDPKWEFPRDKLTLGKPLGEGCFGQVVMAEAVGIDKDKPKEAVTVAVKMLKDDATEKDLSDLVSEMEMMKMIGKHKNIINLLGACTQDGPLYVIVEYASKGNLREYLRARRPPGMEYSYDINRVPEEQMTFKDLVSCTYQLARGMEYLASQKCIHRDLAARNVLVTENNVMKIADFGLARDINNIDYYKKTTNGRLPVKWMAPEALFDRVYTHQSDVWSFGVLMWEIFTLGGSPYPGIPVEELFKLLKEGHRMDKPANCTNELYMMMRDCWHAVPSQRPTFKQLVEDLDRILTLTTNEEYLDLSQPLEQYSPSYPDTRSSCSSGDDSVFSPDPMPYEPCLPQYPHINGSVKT
FGFR3 (V555M), sequence (P22607 23-806 V555M): as the sequence (P22607 23-806) above, with V533M counted along it
FGFR1, sequence (P11362 22-822): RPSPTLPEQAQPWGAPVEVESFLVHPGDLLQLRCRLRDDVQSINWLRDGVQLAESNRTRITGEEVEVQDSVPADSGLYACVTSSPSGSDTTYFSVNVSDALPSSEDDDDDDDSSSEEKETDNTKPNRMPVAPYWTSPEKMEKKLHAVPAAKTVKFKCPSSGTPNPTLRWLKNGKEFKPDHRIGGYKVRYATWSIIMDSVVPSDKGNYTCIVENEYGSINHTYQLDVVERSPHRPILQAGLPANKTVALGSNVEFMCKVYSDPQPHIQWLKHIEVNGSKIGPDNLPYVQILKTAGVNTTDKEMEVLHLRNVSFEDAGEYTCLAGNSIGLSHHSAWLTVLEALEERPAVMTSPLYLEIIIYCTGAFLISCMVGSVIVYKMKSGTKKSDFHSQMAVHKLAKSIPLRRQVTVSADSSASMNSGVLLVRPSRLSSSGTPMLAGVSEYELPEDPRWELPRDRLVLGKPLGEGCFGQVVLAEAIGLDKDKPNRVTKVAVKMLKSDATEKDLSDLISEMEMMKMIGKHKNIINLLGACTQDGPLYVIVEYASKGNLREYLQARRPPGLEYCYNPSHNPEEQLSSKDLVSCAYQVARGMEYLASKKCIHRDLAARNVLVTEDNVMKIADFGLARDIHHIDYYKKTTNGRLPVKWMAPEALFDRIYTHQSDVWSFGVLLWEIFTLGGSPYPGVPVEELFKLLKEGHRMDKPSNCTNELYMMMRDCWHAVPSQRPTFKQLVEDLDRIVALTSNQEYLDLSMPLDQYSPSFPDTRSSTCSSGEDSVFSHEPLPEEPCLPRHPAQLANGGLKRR

Row | SMILES | Kd [1] [nM] | Kd [2] [nM] | Kd [3] [nM] | Kd [4] [nM] | Kd [5] [nM]
1 | Cc1cnnc(C)c1[C@@H](C)Oc1ccc2[nH]nc(-c3ccc(N4CC5(CCCN(S(C)(=O)=O)C5)C4)nc3)c2c1 [Example 188, 5-[(1R)-1-(3,5-dimethylpyridazin-4-yl)ethoxy]-3-[6-(8-methylsulfonyl-2,8-diazaspiro[3.5]nonan-2-yl)-3-pyridyl]-1H-indazole] | 1 to 20 | 20 to 100 | 1 to 20 | 1 to 20 | 1 to 20
2 | Cc1cnnc(C)c1[C@@H](C)Oc1ccc2[nH]nc(-c3ccc(N4CC5(CCCN(C(=O)OC(C)C)C5)C4)nc3)c2c1 [Example 189, isopropyl 2-[5-[5-[(1R)-1-(3,5-dimethylpyridazin-4-yl)ethoxy]-1H-indazol-3-yl]-2-pyridyl]-2,8-diazaspiro[3.5]nonane-8-carboxylate] | 1 to 20 | 20 to 100 | 1 to 20 | 1 to 20 | 1 to 20
3 | CCOC(=O)N1CC2(C1)CN(c1ccc(-c3n[nH]c4ccc(O[C@H](C)c5c(Cl)cnc(C)c5Cl)cc34)cn1)C2 [Example 190, ethyl 6-[5-[5-[(1R)-1-(3,5-dichloro-2-methyl-4-pyridyl)ethoxy]-1H-indazol-3-yl]-2-pyridyl]-2,6-diazaspiro[3.3]heptane-2-carboxylate] | 20 to 100 | 100 to 300 | 1 to 20 | 1 to 20 | 100 to 300
4 | COc1cc2[nH]nc(-c3ccc(N4CC5(C4)CN(S(C)(=O)=O)C5)nc3)c2cc1O[C@H](C)c1c(Cl)cncc1Cl [Example 191, 5-[(1R)-1-(3,5-dichloro-4-pyridyl)ethoxy]-6-methoxy-3-[6-(2-methylsulfonyl-2,6-diazaspiro[3.3]heptan-6-yl)-3-pyridyl]-1H-indazole] | 1 to 20 | 1 to 20 | 1 to 20 | 1 to 20 | 1 to 20
5 | COc1cc2[nH]nc(-c3ccc(N4CC5(C4)CN(S(C)(=O)=O)C5)nc3)c2cc1O[C@@H](C)c1c(C)cnnc1C [Example 192, 5-[(1S)-1-(3,5-dimethylpyridazin-4-yl)ethoxy]-6-methoxy-3-[6-(2-methylsulfonyl-2,6-diazaspiro[3.3]heptan-6-yl)-3-pyridyl]-1H-indazole] | 100 to 300 | 100 to 300 | 1 to 20 | 1 to 20 | 20 to 100
6 | CCOC(=O)N1CC2(C1)CN(c1ccc(-c3n[nH]c4ccc(O[C@@H](C)c5c(Cl)cnc(F)c5Cl)cc34)cn1)C2 [Example 193, Ethyl 6-[5-[5-[(1S)-1-(3,5-dichloro-2-fluoro-4-pyridyl)ethoxy]-1H-indazol-3-yl]-2-pyridyl]-2,6-diazaspiro[3.3]heptane-2-carboxylate] | > 300 | > 300 | > 300 | 100 to 300 | > 300
7 | COc1cc2[nH]nc(-c3ccc(N4CC5(C4)CN(S(C)(=O)=O)C5)nc3)c2cc1O[C@H](C)c1c(C)cnnc1C [Example 194, 5-[(1R)-1-(3,5-dimethylpyridazin-4-yl)ethoxy]-6-methoxy-3-[6-(2-methylsulfonyl-2,6-diazaspiro[3.3]heptan-6-yl)-3-pyridyl]-1H-indazole] | 1 to 20 | 1 to 20 | 1 to 20 | 1 to 20 | 1 to 20
8 | COC(=O)N1CC2(C1)CN(c1ccc(-c3n[nH]c4ccc(O[C@H](C)c5c(Cl)cnc(F)c5Cl)cc34)cn1)C2 [Example 195, methyl 6-[5-[5-[(1R)-1-(3,5-dichloro-2-fluoro-4-pyridyl)ethoxy]-1H-indazol-3-yl]-2-pyridyl]-2,6-diazaspiro[3.3]heptane-2-carboxylate] | 20 to 100 | 100 to 300 | 1 to 20 | 1 to 20 | 20 to 100
9 | CCOC(=O)N1CC2(C1)CN(c1ccc(-c3n[nH]c4ccc(O[C@H](C)c5c(Cl)cnc(F)c5Cl)cc34)cn1)C2 [Example 196, ethyl 6-[5-[5-[(1R)-1-(3,5-dichloro-2-fluoro-4-pyridyl)ethoxy]-1H-indazol-3-yl]-2-pyridyl]-2,6-diazaspiro[3.3]heptane-2-carboxylate] | 20 to 100 | 100 to 300 | 1 to 20 | 1 to 20 | 100 to 300
10 | C[C@@H](Oc1ccc2[nH]nc(-c3ccc(N4CC5(C4)CN(S(C)(=O)=O)C5)nc3)c2c1)c1c(Cl)cnc(F)c1Cl [Example 197, 5-[(1R)-1-(3,5-dichloro-2-fluoro-4-pyridyl)ethoxy]-3-[6-(2-methylsulfonyl-2,6-diazaspiro[3.3]heptan-6-yl)-3-pyridyl]-1H-indazole] | 1 to 20 | 20 to 100 | 1 to 20 | 1 to 20 | 20 to 100
11 | COC(=O)N1CC2(C1)CN(c1ccc(-c3n[nH]c4ccc(O[C@@H](C)c5c(Cl)cnc(F)c5Cl)cc34)cn1)C2 [Example 198, methyl 6-[5-[5-[(1S)-1-(3,5-dichloro-2-fluoro-4-pyridyl)ethoxy]-1H-indazol-3-yl]-2-pyridyl]-2,6-diazaspiro[3.3]heptane-2-carboxylate] | > 300 | > 300 | 100 to 300 | 20 to 100 | > 300
12 | C[C@H](Oc1ccc2[nH]nc(-c3ccc(N4CC5(C4)CN(S(C)(=O)=O)C5)nc3)c2c1)c1c(Cl)cnc(F)c1Cl [Example 199, 5-[(1S)-1-(3,5-dichloro-2-fluoro-4-pyridyl)ethoxy]-3-[6-(2-methylsulfonyl-2,6-diazaspiro[3.3]heptan-6-yl)-3-pyridyl]-1H-indazole] | > 300 | > 300 | 100 to 300 | 20 to 100 | > 300
13 | COc1c(O[C@H](C)c2c(C)cnnc2C)ccc2[nH]nc(-c3ccc(N4CC5(C4)CN(S(C)(=O)=O)C5)nc3)c12 [Example 200, 5-[(1R)-1-(3,5-dimethylpyridazin-4-yl)ethoxy]-4-methoxy-3-[6-(2-methylsulfonyl-2,6-diazaspiro[3.3]heptan-6-yl)-3-pyridyl]-1H-indazole] | > 300 | > 300 | > 300 | 100 to 300 | > 300
14 | Cc1ncc(Cl)c([C@@H](C)Oc2ccc3[nH]nc(-c4ccc(N5CC6(COC6)C5)nc4)c3c2)c1Cl [Example 201, 6-[5-[5-[(1R)-1-(3,5-dichloro-2-methyl-4-pyridyl)ethoxy]-1H-indazol-3-yl]-2-pyridyl]-2-oxa-6-azaspiro[3.3]heptane] | 1 to 20 | 20 to 100 | 1 to 20 | 1 to 20 | 1 to 20
15 | COc1cc2[nH]nc(-c3ccc(N4CC5(COC5)C4)nc3)c2cc1O[C@H](C)c1c(C)cnnc1C [Example 202, 6-[5-[5-[(1R)-1-(3,5-dimethylpyridazin-4-yl)ethoxy]-6-methoxy-1H-indazol-3-yl]-2-pyridyl]-2-oxa-6-azaspiro[3.3]heptane] | 1 to 20 | 1 to 20 | 1 to 20 | 1 to 20 | 1 to 20
16 | C[C@@H](Oc1ccc2[nH]nc(-c3ccc(N4CC5(COC5)C4)nc3)c2c1)c1c(Cl)cnc(F)c1Cl [Example 203, 6-[5-[5-[(1R)-1-(3,5-dichloro-2-fluoro-4-pyridyl)ethoxy]-1H-indazol-3-yl]-2-pyridyl]-2-oxa-6-azaspiro[3.3]heptane] | 1 to 20 | 20 to 100 | 1 to 20 | 1 to 20 | 1 to 20
17 | C[C@@H](Oc1ccc2[nH]nc(-c3ccc(N4CC5(CCOC5)C4)nc3)c2c1)c1c(Cl)cnc(F)c1Cl [Example 204, (R)-2-(5-(5-(1-(3,5-dichloro-2-fluoropyridin-4-yl)ethoxy)-1H-indazol-3-yl)pyridin-2-yl)-6-oxa-2-azaspiro[3.4]octane] | 20 to 100 | 20 to 100 | 1 to 20 | 1 to 20 | 1 to 20
18 | Cc1cnnc(C)c1[C@@H](C)Oc1ccc2[nH]nc(-c3ccc(N4CC5(COC5)C4)nc3)c2c1 [Example 205, 6-[5-[5-[(1R)-1-(3,5-dimethylpyridazin-4-yl)ethoxy]-1H-indazol-3-yl]-2-pyridyl]-2-oxa-6-azaspiro[3.3]heptane] | 1 to 20 | 1 to 20 | 1 to 20 | 1 to 20 | 1 to 20
19 | Cc1cnnc(C)c1[C@@H](C)Oc1ccc2[nH]nc(-c3ccc(N4CC5(CCOC5)C4)nc3)c2c1 [Example 206, (R)-2-(5-(5-(1-(3,5-dimethylpyridazin-4-yl)ethoxy)-1H-indazol-3-yl)pyridin-2-yl)-6-oxa-2-azaspiro[3.4]octane] | 1 to 20 | 1 to 20 | 1 to 20 | 1 to 20 | 1 to 20
20 | COc1cc2[nH]nc(-c3ccc(N4CC5(C4)CN(S(C)(=O)=O)C5)nc3)c2cc1O[C@H](C)c1c(Cl)cnc(C)c1Cl [Example 207, 5-[(1R)-1-(3,5-dichloro-2-methyl-4-pyridyl)ethoxy]-6-methoxy-3-[6-(2-methylsulfonyl-2,6-diazaspiro[3.3]heptan-6-yl)-3-pyridyl]-1H-indazole] | 1 to 20 | 1 to 20 | 1 to 20 | 1 to 20 | 1 to 20
